The values below are quoted from earlier work in patent publication US6465018B1, “Dietary supplement for increasing energy, strength, and immune function” (priority 1997, dated 2002).

The data set has as its system individuals told to avoid physical exercise. The conditions noted are these: daily dosage of 3 grams.

Structures are written as SMILES.

Take `CN(CC(=O)O)C(=N)N` [creatine monohydrate]: the intracellular creatine concentrations result is on record as “raised intracellular creatine concentrations to effective levels”.
